According to US8759328B2, “Once-a-week administration of 25-hydroxy vitamin D3 to sustain elevated steady-state pharmacokinetic blood concentration” (Wisconsin Alumni Research Foundation, priority 2008, dated 2014):

Key:
[1] = rat, in vivo; cited from earlier work
[2] = Serum total calcium after 1×/month oral administration in rats with normal vitamin D status; type: in vivo, rat
Source text: FIG. 2 is a bar graph showing no change in serum calcium occurring after […] oral administration of 25-(OH)D3 in rats with normal vitamin D status. The rats were male, Sprague-Dawley rats (9 weeks of age, n=15) received from a commercial supplier. The animals were placed on a purified diet containing 0.47% calcium and allowed to acclimate for one week. After one week the animals were randomly assigned to 3 groups, bled (0 d), and then orally dosed 1× every […] with vehicle (5% ethanol in Neobee oil) or 25-(OH)D3 dissolved in ethanol and Neobee oil. Blood was again collected 4 hr, 24 h, and 1, 2, 3 and 4 weeks after each single, oral dose was administered, and total calcium concentrations were assessed in the serum using atomic absorption spectrometry. FIG. 2 also contains data taken after the 6th and 10th monthly dose.
The rats were male, Sprague-Dawley rats (9 weeks of age, n=4-6 animals/group) received from a commercial supplier. The animals were placed on a purified diet containing 0.47% calcium and allowed to acclimate for one week. […] Total calcium concentrations were assessed in the serum using atomic absorption spectrometry or a clinical analyzer (Pentra 400, Horiba ABX Diagnostics—France).

Solubility of 25-(OH)D3 = type: physicochemical
Source text: 25-(OH)D3 can exist in its free form or as a monohydrate. 25-(OH)D3 monohydrate is crystalline.

[3] = Serum total calcium after 1×/weekly oral administration in vitamin D deficient rats; type: in vivo, rat; conditions: FIG. 10
Source text: The rats were male, Sprague-Dawley rats (weanlings, n=4-6/group) received from a commercial supplier. The animals were placed in rooms that lacked light emissions in the UV range. The animals were fed diets lacking any vitamin D. At 10 weeks of age the animals were randomly assigned to 3 groups, and then orally dosed 1× every 7 days with vehicle (5% ethanol in Neobee oil) or 25(OH)D3 dissolved in ethanol and Neobee oil. Blood was collected at the times indicated in the graph and total calcium concentrations were assessed in the serum using atomic absorption spectrometry or a clinical analyzer (Pentra 400, Horiba ABX Diagnostics—France).

[4] = Serum 25-(OH)D3 (RIA) after 1×/month oral administration in vitamin D deficient rats; type: in vivo, rat
Source text: FIG. 3 is a bar graph showing exemplary elevations of serum 25-(OH)D3 levels occurring after 1×/month oral administration of 25-(OH)D3 at 1, 3, 9, 30 and 100 mcg/kgBW in vitamin D deficient rats. The rats were male, Sprague-Dawley rats (weanlings, n=30) received from a commercial supplier. The animals were placed in rooms that lacked light emissions in the UV range and were fed diets lacking any vitamin D, whereby at 10 weeks of age the animals were randomly assigned to 6 groups (n=5/group), bled (0 d), and then orally dosed 1× every 28 days with vehicle (5% ethanol in Neobee oil) or 25-(OH)D3 dissolved in ethanol and Neobee oil. Blood was again collected 4 hr, 24 hr, and 1, 2, 3 and 4 weeks after each single, oral dose was administered, and serum 25-(OH)D3 concentrations were assessed using a commercially available RIA kit (DiaSorin of Stillwater, Minn.). FIG. 3 includes data taken after the 6th and 10th monthly dose.
FIG. 7 is a bar graph illustrating the increases in serum 25(OH)D3 occurring after 1×/monthly oral administration of 25(OH)D3 at 1000 and 3000 mcg/kg body weight in vitamin D deficient rats. […] Blood was collected at the times indicated in the graph and serum 25(OH)D3 concentrations were assessed using a commercially available RIA kit (DiaSorin of Stillwater, Minn.).

[5] = Serum 25-(OH)D3 (RIA) after 1×/month oral administration in rats with normal vitamin D status; type: in vivo, rat
Source text: FIG. 1 is a bar graph showing exemplary elevations of serum 25-(OH)D3 levels occurring after 1×/month oral administration of 25-(OH)D3 at 9 and 100 mcg/kgBW in rats with normal vitamin D status. The rats were male, Sprague-Dawley rats (9 weeks of age, n=15) received from a commercial supplier, and the animals were placed on a purified diet containing 0.47% calcium and allowed to acclimate for one week. After one week the animals were randomly assigned to 3 groups, bled (0 d), and then orally dosed 1× every 28 days with vehicle (5% ethanol in Neobee oil) or 25-(OH)D3 dissolved in ethanol and Neobee oil. Blood was again collected 4 hr, 24 hr, and 1, 2, 3 and 4 weeks after each single, oral dose was administered, and, serum 25-(OH)D3 concentrations were assessed using a commercially available RIA kit (DiaSorin of Stillwater, Minn.). FIG. 1 also contains data taken after 6 months of dosing.
FIG. 5 is a bar graph illustrating the increases in serum 25(OH)D3 occurring after 1×/monthly oral administration of 25(OH)D3 at 1000 and 3000 mcg/kg body weight in rats with normal vitamin D status. The rats were male, Sprague-Dawley rats (9 weeks of age, n=4-6 animals/group) received from a commercial supplier. […] Blood was collected at the times indicated in the graph, and serum 25(OH)D3 concentrations were assessed using a commercially available RIA kit (DiaSorin of Stillwater, Minn.).

[6] = Serum 25(OH)D3 (RIA) after 1×/weekly oral administration in vitamin D deficient rats; type: in vivo, rat; conditions: FIG. 9, 1×/weekly oral, 100, 1000 and 3000 mcg/kg body weight
Source text: FIG. 9 is a bar graph illustrating the increases in serum 25(OH)D3 occurring after 1×/weekly oral administration of 25(OH)D3 at 100, 1000 and 3000 mcg/kg body weight in vitamin D deficient rats. The rats were male, Sprague-Dawley rats (weanlings, n=4-6/group) received from a commercial supplier. The animals were placed in rooms that lacked light emissions in the UV range. The animals were fed diets lacking any vitamin D, whereby at 10 weeks of age the animals were randomly assigned to 3 groups and then orally dosed 1× every 7 days with vehicle (5% ethanol in Neobee oil) or 25(OH)D3 dissolved in ethanol and Neobee oil. Blood was collected at the times indicated in the graph and serum 25(OH)D3 concentrations were assessed using a commercially available RIA kit (DiaSorin of Stillwater, Minn.).

[7] = Serum total calcium after 1×/month oral administration in vitamin D-deficient rats; type: in vivo, rat
Source text: FIG. 4 is a bar graph showing no increase in serum Ca concentration levels above the normal range occurring after exemplary 1×/month oral administration of 25-(OH)D3 in vitamin D-deficient rats. The rats were male, Sprague-Dawley rats (weanlings, n=30) received from a commercial supplier. The animals were placed in rooms that lacked light emissions in the UV range and fed diets lacking vitamin D. At 10 weeks of age, the rats were randomly assigned to 6 groups (n=5/group), bled (0 d) and then orally dosed 1× every 28 days with vehicle (5% ethanol in Neobee oil) or 25-(OH)D3 dissolved in ethanol and Neobee oil, whereby blood was again collected 4 hr, 24 hr, and 1, 2, 3 and 4 weeks after each single, oral dose was administered. Total calcium concentrations were assessed in the serum using absorption spectrometry. FIG. 4 includes data out to 10 months of dosing.
The rats were male, Sprague-Dawley rats (weanlings, n=4-6/group) received from a commercial supplier. […] Blood was collected at the times indicated in the graph and total calcium concentrations were assessed in the serum using atomic absorption spectrometry or a clinical analyzer (Pentra 400, Horiba ABX Diagnostics—France).

[8] = cited from earlier work

C=C1CC[C@H](O)C/C1=C/C=C1\CCCC2(C)[C@@H]([C@H](C)CCCC(C)(C)O)CC[C@@H]12 (stereo partly drawn) [25-(OH)D3, 25-hydroxy-vitamin D3]
25-(OH)D3 levels with risk of causing a mild vitamin D intoxication [1]: above 500 ng/ml
blood level concentration at which toxicity becomes a concern [1]: greater than 450 ng/ml
serum calcium (hypercalcemia) ([2]; FIG. 2, 1×/month oral, up to 10 months): do not cause hypercalcemia
serum calcium ([2]; FIG. 6, 1×/monthly oral, 1000 and 3000 mcg/kg body weight): no increase in serum calcium outside the normal range
solubility (Solubility of 25-(OH)D3; organic solvents): soluble
solubility (Solubility of 25-(OH)D3; water): relatively insoluble
serum calcium [3]: no increase in serum calcium outside the normal range
serum 25-(OH)D3 levels ([4]; FIG. 3, 1×/month oral, 1, 3, 9, 30 and 100 mcg/kgBW, vitamin D deficient rats, up to 10th monthly dose): values return to baseline 4 weeks after the dose is administered
serum 25(OH)D3 circulating levels ([4]; FIG. 7, 1×/monthly oral, 1000 and 3000 mcg/kg body weight, D-deficient rats): circulating levels higher than normal
serum 25-(OH)D3 levels ([5]; FIG. 1, 1×/month oral, 9 and 100 mcg/kgBW, rats with normal vitamin D status, up to 6 months of dosing): values return to baseline 4 weeks after the dose is administered
serum 25(OH)D3 circulating levels ([5]; FIG. 5, 1×/monthly oral, 1000 and 3000 mcg/kg body weight, D-sufficient rats): circulating levels higher than normal
blood levels of 25(OH)D3 [6]: above the normal range without the large fluctuations
serum Ca concentration (hypercalcemia) ([7]; FIG. 4, 1×/month oral, vitamin D-deficient rats, up to 10 months): do not cause hypercalcemia
serum calcium ([7]; FIG. 8, 1×/monthly oral, 1000 and 3000 mcg/kg body weight, vitamin D deficient rats): no increase in serum calcium outside the normal range
time to peak 25-(OH)D3 concentrations in the serum ([8]; administered orally): about 4 hours
lifetime in the body ([8]; human, in vivo): 25 to 32 days
fraction absorbed ([8]; orally administered, in man): 62-77%
half-life ([8]; orally administered): 12 to 23 days
